Laboratory results: ChEMBL document CHEMBL6096728, “Simultaneous Induction of Immunogenic Pyroptosis and PD-L1 Downregulation by One Single Photosensitizer for Synergistic Cancer Photoimmunotherapy” (J Med Chem, 2025)
Calls of active or inactive are those of the source. The rule behind the calls is not given here.

Columns and labels:
4T1 [1] = experiment: Antitumor activity against mouse 4T1 cells implanted in BALB/c mouse model assessed as reduction in tumor growth at 25 mg/kg, iv measured after 14 days under light irradiation of 300 mW.cm/2 at 400 to 700nm measured after 5 mins; assay type: functional, organism-based; details: time 14.0 day
[2] = Induction of singlet oxygen production in acetonitrile solution assessed as decrease in ABDA absorption under LED light irradiation at 20 mW.cm/2 measured upto 30 mins by microplate reader analysis; assay type: functional
[3] = Phototoxicity against human MDA-MB-231 cells preincubated for 24 hrs followed by light irradiation of 20 mW.cm/2 at 400 to 700nm for 10 mins under hypoxia condition by CCK-8 method; assay type: functional, cell-based; details: MDA-MB-231, light or radiation study
[4] = Induction of ROS generation under LED light irradiation assessed as increase in superoxide anion radical level by measuring increase in DHR123 fluorescence at 5 uM measured for 7 mins by fluorescence based analysis; assay type: functional
4T1 [5] = experiment: Induction of pyroptosis in mouse 4T1 cells assessed as appearance of large bubbles in cell at 0.5 uM preincubated with compound for 4 hrs followed by light irradiation of 20 mW.cm/2 at 400 to 700nm for 10 mins by confocal fluorescence microscopy analysis; assay type: functional, cell-based
[6] = Toxicity in BALB/c mouse assessed as effect on liver at 25 mg/kg, iv measured after 14 days by H and E staining based analysis; assay type: organism-based; details: in vivo, 336 h, time 14 day
MDA-MB-231 [7] = experiment: Photocytotoxicity in human MDA-MB-231 cells assessed as cell viablity incubated for 24 hrs under light irradiation of 50 mW.cm/2 at 400 to 700nm measured after 10 mins in normoxia condition by CCK-8 method; assay type: functional, cell-based; details: MDA-MB-231, light or radiation study
[8] = Toxicity in BALB/c mouse assessed as effect on hemoglobin at 25 mg/kg, iv measured after 14 days under light irradiation of 300 mW.cm/2 at 400 to 700nm measured after 5 mins; assay type: organism-based; details: in vivo, 336 h, 0.7 µM, time 14 day
4T1 [9] = experiment: Antitumor immunity against mouse 4T1 cells implanted in BALB/c mouse model assessed as increase in proportion of tumor infiltrating CD8+ T cells at 25 mg/kg, iv measured after 14 days under light irradiation of 300 mW.cm/2 at 400 to 700nm measured after 5 mins by immunofluorescence analysis; assay type: functional, organism-based; details: time 14.0 day
4T1 [10] = experiment: Induction of intracellular ROS generation in mouse 4T1 cells assessed as increase in fluorescence intensity at 0.1 uM preincubated for 2 hrs followed by compound washout further incubated with DCFH-DA probe for 30 mins under light irradiation of 20 mW.cm/2 at 400 to 700nm measured after 10 mins by flow cytometry analysis; assay type: functional, cell-based
4T1 [11] = experiment: Inhibition of mouse 4T1 cells at 0.1 uM under light irradiation of 20 mW.cm/2 at 400 to 700nm measured after 14 days by crystal violet staining based assay; assay type: functional, cell-based; details: time 14.0 day
[12] = Toxicity in BALB/c mouse assessed as effect on kidney at 25 mg/kg, iv measured after 14 days under light irradiation of 300 mW.cm/2 at 400 to 700nm measured after 5 mins; assay type: organism-based; details: in vivo, 336 h, 0.7 µM, time 14 day
4T1 [13] = experiment: Antitumor immunity against mouse 4T1 cells implanted in BALB/c mouse model assessed as increase in IFN-gamma secretion in tumors at 25 mg/kg, iv measured after 14 days under light irradiation of 300 mW.cm/2 at 400 to 700nm measured after 5 mins by ELISA method; assay type: functional, organism-based; details: time 14.0 day
MDA-MB-231 [14] = experiment: Induction of pyroptosis in human MDA-MB-231 cells assessed as appearance of large bubbles in cell at 0.5 uM preincubated with compound for 4 hrs followed by light irradiation of 20 mW.cm/2 at 400 to 700nm for 10 mins by confocal fluorescence microscopy analysis; assay type: functional, cell-based
[15] = Toxicity in BALB/c mouse assessed as effect on lung at 25 mg/kg, iv measured after 14 days under light irradiation of 300 mW.cm/2 at 400 to 700nm measured after 5 mins; assay type: organism-based; details: in vivo, 336 h, 0.7 µM, time 14 day
MDA-MB-231 [16] = experiment: Inhibition of STAT3 phosphorylation level in human MDA-MB-231 cells at 0.5 uM incubated for 24 hrs under light irradiation of 20 mW.cm/2 at 400 to 700nm for 10 mins by Western blot analysis; assay type: functional, cell-based
MDA-MB-231 [17] = experiment: Photocytotoxicity in human MDA-MB-231 cells assessed as cell viablity incubated for 24 hrs under light irradiation of 50 mW.cm/2 at 400 to 700nm measured after 10 mins in hypoxia condition by CCK-8 method; assay type: functional, cell-based; details: MDA-MB-231, light or radiation study
MDA-MB-231 [18] = experiment: Induction of pyroptosis in human MDA-MB-231 cells assessed as effect on caspase-1 expression level at 0.1 to 0.5 uM preincubated with compound for 12 hrs followed by light irradiation of 20 mW.cm/2 at 400 to 700nm for 10 mins by Western blot analysis; assay type: functional, cell-based; details: dose 0.1-0.5 µM
MDA-MB-231 [19] = experiment: Downregulation of PD-L1 expression level in human MDA-MB-231 cells at 0.5 uM preincubated with MG-132 followed by compound addition and measured after 24 hrs under light irradiation of 20 mW.cm/2 at 400 to 700nm for 10 mins by Western blot analysis; assay type: functional, cell-based
4T1 [20] = experiment: Antitumor immunity against mouse 4T1 cells implanted in BALB/c mouse model assessed as increase in proportion of tumor infiltrating CD4+ T cells at 25 mg/kg, iv measured after 14 days under light irradiation of 300 mW.cm/2 at 400 to 700nm measured after 5 mins by immunofluorescence analysis; assay type: functional, organism-based; details: time 14.0 day
4T1 [21] = experiment: Antitumor immunity against mouse 4T1 cells implanted in BALB/c mouse model assessed as upregulation of proportion of neutrophils in lymph node at 25 mg/kg, iv measured after 14 days under light irradiation of 300 mW.cm/2 at 400 to 700nm measured after 5 mins by flow cytometry analysis; assay type: functional, organism-based; details: time 14.0 day
[22] = Toxicity in BALB/c mouse assessed as effect on hemoglobin at 25 mg/kg, iv measured after 14 days; assay type: organism-based; details: in vivo, 336 h, time 14 day
MDA-MB-231 [23] = experiment: Cytotoxicity against human MDA-MB-231 cells at 0.01 to 10 uM incubated for 2 hrs under dark condition by CCK-8 method; assay type: functional, cell-based; details: dose 0.01-10 µM
MDA-MB-231 [24] = experiment: Induction of pyroptosis in human MDA-MB-231 cells assessed as formation of bubble-like protrusion on cell surface at 0.25 uM preincubated with compound for 12 hrs followed by light irradiation of 20 mW.cm/2 at 400 to 700nm for 10 mins by confocal fluorescence microscopy analysis; assay type: functional, cell-based
4T1 [25] = experiment: Antitumor immunity against mouse 4T1 cells implanted in BALB/c mouse model assessed as increase of CD8+ T cells in lymph node at 25 mg/kg, iv measured after 14 days under light irradiation of 300 mW.cm/2 at 400 to 700nm measured after 5 mins […]; assay type: functional, organism-based; details: time 14.0 day
[26] = Toxicity in BALB/c mouse assessed as effect on kidney at 25 mg/kg, iv measured after 14 days by H and E staining based analysis; assay type: organism-based; details: in vivo, 336 h, time 14 day
MDA-MB-231 [27] = experiment: Induction of pyroptosis mediated immunogenic cell death in human MDA-MB-231 cells assessed as increase in CRT exposure on cell membrane at 0.5 uM incubated for 12 hrs under light irradiation of 20 mW.cm/2 at 400 to 700nm for 10 mins; assay type: functional, cell-based

## O=c1cc2sc3cc(N4CCNCC4)ccc3nc-2c2ccccc12
4T1 [1]
  Activity: Active
[2]
  Activity: Active
[3]
  IC50: 0.303 µM
[4]
  Activity: Active
4T1 [5]
  Activity: Active
[6]
  Activity: Non-toxic
MDA-MB-231 [7]
  IC50: 0.356 µM
[8]
  Activity: Non-toxic
4T1 [9]
  Activity: Active
4T1 [10]
  Activity: Active
4T1 [11]
  inhibition: Active
[12]
  Activity: Non-toxic
4T1 [13]
  Activity: Active
MDA-MB-231 [14]
  Activity: Active
[15]
  Activity: Non-toxic
MDA-MB-231 [16]
  inhibition: Active
MDA-MB-231 [17]
  IC50: 0.983 µM
MDA-MB-231 [18]
  Activity: inactive
MDA-MB-231 [19]
  Activity: inactive
4T1 [20]
  Activity: Active
4T1 [21]
  Activity: Active
[22]
  Activity: Non-toxic
MDA-MB-231 [23]
  Activity: Active; Compound Showed Low Toxicity
MDA-MB-231 [24]
  Activity: Active
4T1 [25]
  Activity: Active
[26]
  Activity: Non-toxic
MDA-MB-231 [27]
  Activity: Active
